Where “and” joins values, the source holds several entries; their conditions need not be identical. Equal values may be shown once.
How the values were obtained:
[1] = test system: RHOA-GTP in BM lin− cells; assay: G-LISA activation assay: RHOA-GTP; format: cell-based, mouse; details: for RHOA-GTP level (G-LISA): Supplementary Figure 7b (left panel)
Experimental: The RAC1-GTP, RHOA-GTP, and CDC42-GTP activation levels in BM lin^− cells were measured using a colorimetric-based RAC1-, RHOA-, and CDC42 G-LISA Activation Assay Kit (Cytoskeleton, Inc.). BM cells from femurs and tibias were isolated from 12-week-old Ptprs^+/+ and Ptprs^−/− mice. Cells were then depleted of lineage-committed cells with Direct Lineage Cell Depletion Kit (Miltenyi Biotec, #130-110-470; 1:5). The BM lin^− cell fraction was then serum starved in Iscove’s modified Dulbecco’s medium (IMDM) and treated with either vehicle (equal amount of DMSO) or 1 μg/mL DJ001 for 10 min at 37 °C. After treatment, cells were washed with ice-cold PBS and then placed in lysis buffer supplemented with protease inhibitor. Lysate concentrations were measured by Pierce^TM BCA Protein Assay Kit (ThermoFisher Scientific). G-LISA was performed according to the manufacturer’s instructions. Briefly, 12.5 μg of lysates was added to a GTP-binding protein pre-coated plate and active RAC1-GTP, RHOA-GTP, or CDC42-GTP levels were measured at 490 nm using a PowerWave XS2 microplate reader (BioTek).

C57BL/6 mice = assay: Cytokine analysis in vivo (BM supernatant at day +5); design: species or system mouse; PTN: unit not given beside the values; IFN-g / IL-1a / IL-1b / IL-2 / IL-4 / IL-3 / IL-5 / IL-6 / IL-7 / IL-9 / IL-10 / IL-12(p40) / IL-12(p70) / LIF / IL-13 / LIX / IL-15 / IL-17 / IP-10 / CXCL12 / SCF / TPO / EGF / DKK / G-CSF / Eotaxin / GM-CSF / KC / MCP-1 / MIP-1a / MIP-1b / M-CSF / MIP-2 / MIG / RANTES / VEGF / TNF-a: unit not given here
Experimental: For in vitro cytokine measurements, 3.5 × 10^4 BM KSL cells were irradiated with 300 cGy and cultured in TSF media with and without 1 μg/mL DJ001. Non-irradiated KSL cells were cultured in TSF media with and without 1 μg/mL DJ001. At 12 h of culture, culture supernatants were collected for analysis. For in vivo cytokine measurements, adult C57BL/6 mice were irradiated with 750 cGy TBI and then treated with 5 mg/kg of DJ001 or vehicle, subcutaneously, from day + 1 to day + 5. Non-irradiated mice received the identical regimen of 5 mg/kg DJ001 or vehicle for 5 days. Mice were killed and BM cells were collected into IMDM. Cells were pelleted and the BM supernatant was collected and sent to the UCLA Immune Assessment Core for cytokine analysis. All samples were tested on a mouse 32-plex Cytokine/Chemokine panel platform from EMD Milipore using Luminex’s xMAP® immunoassay technology (Luminex, Inc.). In addition, the following cytokine levels were assessed by solid-phase ELISA assay according to the manufacturer’s description: CXCL12 (R&D Systems), SCF (R&D Systems), Thrombopoietin (TPO) (R&D Systems), PTN (Biomatik), DKK1 (R&D Systems), and EGF (R&D Systems).

[2] = 750cGy, Supplementary Figure 6c
[3] = 750cGy, Supplementary Figure 6d
[4] = NI (non-irradiated), Supplementary Figure 6c
[5] = NI (non-irradiated), Supplementary Figure 6d

## O=C(/C=C\Nc1cccc([N+](=O)[O-])c1)c1ccccc1 [DJ001, (Z)-3-((3-nitrophenyl)amino)-1-phenylprop-2-en-1-one]
[1]; BM lin− cells, 1 μg/mL DJ001, 10 min
  activation of RhoA: did not alter the activation
[1]; Ptprs+/+ cells
  RHOA-GTP level (G-LISA): 0.1099 and 0.0821 and 0.1369
[1]; Ptprs-/- cells
  RHOA-GTP level (G-LISA): 0.1117 and 0.0668 and 0.0845
C57BL/6 mice; 5 mg/kg DJ001 for 5 days
  cytokine levels in BM of non-irradiated mice: no effects on cytokine levels
C57BL/6 mice; [2]
  IFN-g: 0.02
  IL-1a: 32.33 and 26.87 and 17.68
  IL-2: 1.59 and 2.65 and 1.92
  IL-3: 1.4
  IL-4: 1.41
  IL-5: 3.23 and 2.28
  IL-6: 1.83 and 1.7
  IL-9: 198.07 and 228.02 and 160.28
  IL-10: 0.57
  IL-12(p40): 0.61
  IL-12(p70): 3.18
  IL-13: 7.43
  IL-15: 2.73
  IL-17: 0.09
  IP-10: 44.2 and 47.75 and 46.43
  LIX: 516.55 and 495.26 and 507.12
C57BL/6 mice; [3]
  CXCL12: 552 and 624 and 905
  DKK: 169.52 and 249.19 and 307.94
  EGF: 11.77 and 17.58 and 11.6
  Eotaxin: 67.39 and 68.27 and 79.6
  G-CSF: 64.72 and 76.01 and 58.45
  GM-CSF: 15.66
  KC: 22.82 and 26.89 and 24.21
  MCP-1: 8.72 and 10.08 and 6.75
  MIG: 128.05 and 148.17 and 148.91
  MIP-1a: 29.47 and 26.14
  MIP-1b: 3.05
  PTN: 102.04 and 118.97 and 192.81
  RANTES: 2.96 and 2.94
  SCF: 146.274 and 131.091 and 159.522
  TNF-a: 3.15
  TPO: 49.177 and 67.682 and 63.573
  VEGF: 1.01 and 1.11
C57BL/6 mice; [4]
  IL-1b: 0.97
  IL-3: 1.4
  IL-4: 1.41
  IL-5: 2.28
  IL-7: 0.9937 and 1.153
  IL-10: 1.167 and 1.4327
  IL-12(p40): 0.74
  IL-12(p70): 3.18
  IL-13: 7.43 and 9.117
  IL-15: 2.73
  IL-17: 0.21
  IP-10: 33.483 and 30.0231 and 37.7364
  LIF: 0.3842
  LIX: 761.708 and 684.296 and 1083.25
C57BL/6 mice; [5]
  CXCL12: 622.694 and 560.08 and 714.605
  DKK: 277.711 and 227.737 and 332.999
  EGF: 2.362 and 1.271 and 1.363
  Eotaxin: 99.795 and 115.637 and 94.9841
  G-CSF: 0.02
  GM-CSF: 15.66
  KC: 2.085 and 1.462 and 2.044
  M-CSF: 2.427 and 3.036 and 4.571
  MCP-1: 3.63 and 5.244
  MIG: 98.9578 and 70.0219 and 103.204
  MIP-1b: 7.1682 and 4.315
  MIP-2: 21.5628 and 31.4245 and 16.3073
  PTN: 163.391 and 261.361 and 175.154
  RANTES: 4.272 and 4.763 and 5.943
  SCF: 23.6572 and 17.6223 and 24.6635
  TNF-a: 3.15
  TPO: 7.2054 and 5.699 and 7.158
  VEGF: 1.293 and 2.139 and 2.31
C57BL/6 mice; day +5 following 750 cGy TBI
  CXCL12 levels in BM of irradiated mice vs vehicle: modest increase in CXCL12 levels
  PTN levels in BM of irradiated mice vs vehicle: decrease in PTN levels

From article PMC6694155, “PTPσ inhibitors promote hematopoietic stem cell regeneration” (Nature Communications, 2019)
